Test results as given in patent US12534444B2, “Treatment of cancer/inhibition of metastasis” (Celex Oncology Innovations Limited, priority 2010, dated 2026).
“Also recorded” adds a separate entry of the source.

Key:
MDA-MB-231 cells [1] = assay: Invasion assay (Matrigel Transwell); type: cell-based, human
Description: This assay is an extension of the transverse migration assay described above. To “invade”, the cells need both (i) to move as in the transverse migration assay and (ii) secrete a proteolytic enzyme to digest their surroundings. The ability of cells to invade neighbouring tissues by enzyme secretion was therefore assessed by using a layer of Matrigel™ (BD Biosciences) spread across the porous membrane of a Transwell® insert.
FIG. 7 is a schematic side sectional view of an invasion chamber 701 having a Transwell® insert 702 separating the chamber into upper 703 and lower 704 sections. The insert 702 has a migration filter membrane 705 in its base with 8 μm pores 706 extending therethrough. A layer 707 of Matrigel™ is shown coating the filter membrane 705.
Cells 708 were plated at a density of 2×10^4/ml onto the Matrigel™ layer 707 in 24-well plates (Becton-Dickinson) according to the manufacturers' instructions. 50 μl Matrigel™ was seeded at a 1:7 dilution (10 mg/ml stock) onto the inserts and left overnight. Prior to seeding with the cells the Matrigel™ was rehydrated using medium with no additions. This medium was removed prior to seeding the cells.
Cells were plated in a 1-5% FBS chemotactic gradient overnight (12 hours). The nutrient concentration in the medium 709 in the upper section 703 of the chamber was less than the concentration of nutrient in the medium 710 in the lower section 704 to induced movement of the cells through the Matrigel™ layer 707 and through the pores 706 to the underside of the filter membrane 705. At the end of each assay, non-invaded/non-migrated cells were removed from the upper surface of the insert 702 with two different swabs.
The number of cells invading to the underside of the insert 702 was determined using crystal violet staining. Invaded cells were fixed for 15 minutes with ice-cold methanol. Then 0.5% crystal violet (in 25% methanol) was added for 15 minutes. The inserts were swabbed again and then washed in water and allowed to dry. Cells were then counted using twelve separate fields of view per insert (×200 magnification). If the difference in the average number of cells invading the two control inserts was more than 40%, the experiment was rejected.
(§1) With the exception of single cell adhesion tests, which are discussed in the following paragraph, experiments were carried out under either; • (i) normal normoxic conditions ([…], 5% carbon dioxide), or • (ii) following 24 hours hypoxic pre-treatment (2% O2, 5% CO2, 93% N2) continued during the assays.

Mat-LyLu cells = assay: Cell growth (proliferation) assay (MTT); type: cell-based, rat
Protocol: (§2) Cells were plated at 2×10^4 cells/ml in 24-well plates (Becton-Dickinson) and allowed to settle overnight. The cells were then treated for the required time of incubation (24 hours+), with medium changes every 24 hours. At the end of the treatment, the medium was removed, and this was followed by the colorimetric 3-[4,5-dimethylthiazol-2-yl]-2,5-diphenyltetrazolium bromide (MTT) assay (Grimes et al., 1995). Briefly, 0.1 ml MTT (5 mg/ml made up in the growth medium) and 0.4 ml growth medium was added in each well and the plate was incubated for 3-4 hours at 37° C. The medium was then removed from the chambers and replaced with 0.5 ml dimethyl sulfoxide (DMSO) and 0.063 ml glycine buffer (0.1 M glycine and 0.1 M NaCl; pH 10.5). Absorbance at 570 nm was determined 15 minutes after the addition of the glycine buffer. Results were calculated as means of nine repeats of each of the treatment vs. control spectrophotometer readings from individual invasion wells.
as §1

MDA-MB-231 cells [2] = assay: Cell viability assay (trypan blue); type: cell-based, human; conditions: Normoxia, 48 hours
Protocol: Cells were seeded at a density of 5×10^4 cells/ml in 35 mm Falcon tissue culture dishes. After treatment with a given drug, the medium was removed and replaced with 800 μl of growth medium and 200 μl 0.4% trypan blue (Sigma, Dorset, UK) and incubated for 10 minutes in the incubator. The trypan blue was removed and the cells were washed once with 3 ml growth medium. For each treatment, cells from 30 random fields of view were counted under 100× magnification. The number of dead cells, stained blue, was counted in each field of view. The data were expressed as percentages of living cells out of the total number of cells in given fields of view. The percentages were averaged and differences between control and treatment were compared from at least three independent experiments.
as §1

MDA-MB-231 cells [3] = assay: Cell growth (proliferation) assay (MTT); type: cell-based, human; conditions: for PROLIFERATION (24 hours) / growth (number of cells): Normoxia; for growth (number of cells): 48 hours
Protocol: as §2, §1

MDA-MB-231 cells [4] = assay: Lateral motility assay (wound-heal / scratch); type: cell-based, human
Protocol: This assay was used to represent the “free” motility of cancer cells during local spreading. FIG. 5(a) is a plan view from above of a cell culture dish 501 having a semi-confluent layer of cells 502 on its surface, the cells being in an aqueous medium 503.
In order to determine lateral motility, a “wound-heal (“scratch”)” test was carried out, in which a scratch 504 of ˜0.5 mm was made through the layer of cells, as shown in FIG. 5(b) which is a side sectional view of the cell culture dish.
During the period of 24 hours following the formation of the scratch, the cells moved into the gap.
FIGS. 5(c) and 5(d) are schematic plan views of the cell culture dish 501 at time t=zero when the width of the scratch 504 is w0 and time t=24 hours when the width of the scratch 504 is w24, respectively.
as §1

[5] = Hypoxia, 10 μM, listed as RANOLAZINE
[6] = Hypoxia, 20 μM, listed as RANOLAZINE
[7] = Hypoxia, 50 μM, listed as RANOLAZINE
[8] = Hypoxia, 300 μM, listed as RANOLAZINE
[9] = Normoxia, 10 μM, listed as RANOLAZINE
[10] = Normoxia, 20 μM, listed as RANOLAZINE
[11] = Normoxia, 50 μM, listed as RANOLAZINE
[12] = Normoxia, 300 μM, listed as RANOLAZINE

COc1ccccc1OCC(O)CN1CCN(CC(=O)Nc2c(C)cccc2C)CC1 (stereo not shown) [ranolazine]
INVASIVENESS (no pretreatment) (MDA-MB-231 cells [1]; Hypoxia, 5 μM): not statistically significant | INVASIVENESS (pretreatment) (MDA-MB-231 cells [1]; Hypoxia, 5 μM, 72 hours pretreatment): very significant reduction | INVASIVENESS (pretreatment) (MDA-MB-231 cells [1]; Hypoxia, 5 μM, 72 hours pretreatment, listed as RANOLAZINE): decreased | INVASIVENESS (no pretreatment) (MDA-MB-231 cells [1]; Hypoxia, 5 μM, listed as RANOLAZINE): no benefit | INVASIVENESS (no pretreatment) (MDA-MB-231 cells [1]; Hypoxia, 10 μM): not statistically significant | INVASIVENESS (no pretreatment) (MDA-MB-231 cells [1]; [5]): decreased | INVASIVENESS (no pretreatment) (MDA-MB-231 cells [1]; Hypoxia, 20 μM): reduced the migration of the cells | INVASIVENESS (no pretreatment) (MDA-MB-231 cells [1]; [6]): no benefit | INVASIVENESS (no pretreatment) (MDA-MB-231 cells [1]; Hypoxia, 25 μM): less invasive than untreated cells in a statistically significant way | INVASIVENESS (pretreatment) (MDA-MB-231 cells [1]; Hypoxia, 25 μM, 48 hours): decreased | INVASIVENESS (pretreatment) (MDA-MB-231 cells [1]; Hypoxia, 25 μM, 72 hours): decreased | INVASIVENESS (no pretreatment) (MDA-MB-231 cells [1]; Hypoxia, 25 μM, listed as RANOLAZINE): decreased | invasiveness (pre-treatment) (MDA-MB-231 cells [1]; Hypoxia, 25 μM, pre-treated for 24 hours before the 24 hour long assay): significantly less invasive | invasiveness (pre-treatment) (MDA-MB-231 cells [1]; Hypoxia, 25 μM, pre-treated for 48 hours before the 24 hour long assay): significantly less invasive | INVASIVENESS (no pretreatment) (MDA-MB-231 cells [1]; Hypoxia, 50 μM): reduced the migration of the cells | INVASIVENESS (no pretreatment) (MDA-MB-231 cells [1]; [7]): decreased | INVASIVENESS (no pretreatment) (MDA-MB-231 cells [1]; Hypoxia, 300 μM): reduced the migration of the cells | INVASIVENESS (no pretreatment) (MDA-MB-231 cells [1]; [8]): decreased | INVASIVENESS (no pretreatment) (MDA-MB-231 cells [1]; Normoxia, 10 μM): reduced the migration of the cells | INVASIVENESS (no pretreatment) (MDA-MB-231 cells [1]; [9]): decreased | INVASIVENESS (no pretreatment) (MDA-MB-231 cells [1]; Normoxia, 20 μM): reduced the migration of the cells | INVASIVENESS (no pretreatment) (MDA-MB-231 cells [1]; [10]): decreased | INVASIVENESS (no pretreatment) (MDA-MB-231 cells [1]; Normoxia, 50 μM): not statistically significant | INVASIVENESS (no pretreatment) (MDA-MB-231 cells [1]; [11]): no effect | INVASIVENESS (no pretreatment) (MDA-MB-231 cells [1]; Normoxia, 300 μM): reduced the migration of the cells | INVASIVENESS (no pretreatment) (MDA-MB-231 cells [1]; [12]): decreased | potency on invasiveness compared with positive control TTX (MDA-MB-231 cells [1]; higher concentrations tested, TTX 10 μmol): more potent than the toxin (TTX) | PROLIFERATION (24 hours) (Mat-LyLu cells; Hypoxia, 20 μM): did not result in any statistically significant effect | PROLIFERATION (24 hours) (Mat-LyLu cells; [6]): no effect | PROLIFERATION (24 hours) (Mat-LyLu cells; Hypoxia, 50 μM): did not result in any statistically significant effect | PROLIFERATION (24 hours) (Mat-LyLu cells; [7]): no effect | PROLIFERATION (24 hours) (Mat-LyLu cells; Hypoxia, 300 μM): reduction in the number of cells | PROLIFERATION (24 hours) (Mat-LyLu cells; [8]): tail off | PROLIFERATION (24 hours) (Mat-LyLu cells; Normoxia, 20 μM): did not result in any statistically significant effect | PROLIFERATION (24 hours) (Mat-LyLu cells; [10]): no effect | PROLIFERATION (24 hours) (Mat-LyLu cells; Normoxia, 50 μM): did not result in any statistically significant effect | PROLIFERATION (24 hours) (Mat-LyLu cells; [11]): no effect | PROLIFERATION (24 hours) (Mat-LyLu cells; Normoxia, 300 μM): did not result in any statistically significant effect | PROLIFERATION (24 hours) (Mat-LyLu cells; [12]): tail off | CELL VIABILITY (MDA-MB-231 cells [2]; 1 μM): no effect | CELL VIABILITY (MDA-MB-231 cells [2]; 10 μM): no effect | CELL VIABILITY (MDA-MB-231 cells [2]; 100 μM): no effect | growth (MDA-MB-231 cells [3]; Hypoxia, same concentrations (1 μM, 10 μM and 100 μM), results not shown): did not affect the growth | PROLIFERATION (24 hours) (MDA-MB-231 cells [3]; 1 μM): no significant difference | PROLIFERATION (24 hours) (MDA-MB-231 cells [3]; 1 μM, listed as RANOLAZINE): no effect | growth (number of cells) (MDA-MB-231 cells [3]; 1 μM): no statistically significant difference | PROLIFERATION (24 hours) (MDA-MB-231 cells [3]; 10 μM): no significant difference | PROLIFERATION (24 hours) (MDA-MB-231 cells [3]; 10 μM, listed as RANOLAZINE): no effect | growth (number of cells) (MDA-MB-231 cells [3]; 10 μM): no statistically significant difference | PROLIFERATION (24 hours) (MDA-MB-231 cells [3]; 100 μM): no significant difference | PROLIFERATION (24 hours) (MDA-MB-231 cells [3]; 100 μM, listed as RANOLAZINE): no effect | growth (number of cells) (MDA-MB-231 cells [3]; 100 μM): no statistically significant difference | LATERAL MOTILITY (MDA-MB-231 cells [4]; Hypoxia, 1 μM): statistically significant reduction; also recorded: reduced the lateral motility | LATERAL MOTILITY (MDA-MB-231 cells [4]; Hypoxia, 1 μM, listed as RANOLAZINE): decreased | LATERAL MOTILITY (MDA-MB-231 cells [4]; Hypoxia, 10 μM): statistically significant reduction; also recorded: reduced the lateral motility | LATERAL MOTILITY (MDA-MB-231 cells [4]; [5]): decreased | LATERAL MOTILITY (MDA-MB-231 cells [4]; Hypoxia, 100 μM): statistically significant reduction; also recorded: reduced the lateral motility | LATERAL MOTILITY (MDA-MB-231 cells [4]; Hypoxia, 100 μM, listed as RANOLAZINE): decreased | LATERAL MOTILITY (MDA-MB-231 cells [4]; Normoxia, 1 μM): reduced | LATERAL MOTILITY (MDA-MB-231 cells [4]; Normoxia, 1 μM, listed as RANOLAZINE): decreased | LATERAL MOTILITY (MDA-MB-231 cells [4]; Normoxia, 10 μM): reduced | LATERAL MOTILITY (MDA-MB-231 cells [4]; [9]): decreased | LATERAL MOTILITY (MDA-MB-231 cells [4]; Normoxia, 100 μM): reduction at a concentration of 100 μM ranolazine was statistically significant | LATERAL MOTILITY (MDA-MB-231 cells [4]; Normoxia, 100 μM, listed as RANOLAZINE): decreased
